Entries after “also recorded” stand apart in the source; their conditions may differ.
What was measured:
[1] = biological target: T1, full-length enzyme (sGC) (Homo sapiens, UniProt Q02108+Q02153); assay: SPR binding to full-length sGC
T1 construct: Full-length human recombinant guanylyl cyclase (soluble); purchased Enzo lifesciences ALX-201-177
T1 sequence (Q02108 1-690): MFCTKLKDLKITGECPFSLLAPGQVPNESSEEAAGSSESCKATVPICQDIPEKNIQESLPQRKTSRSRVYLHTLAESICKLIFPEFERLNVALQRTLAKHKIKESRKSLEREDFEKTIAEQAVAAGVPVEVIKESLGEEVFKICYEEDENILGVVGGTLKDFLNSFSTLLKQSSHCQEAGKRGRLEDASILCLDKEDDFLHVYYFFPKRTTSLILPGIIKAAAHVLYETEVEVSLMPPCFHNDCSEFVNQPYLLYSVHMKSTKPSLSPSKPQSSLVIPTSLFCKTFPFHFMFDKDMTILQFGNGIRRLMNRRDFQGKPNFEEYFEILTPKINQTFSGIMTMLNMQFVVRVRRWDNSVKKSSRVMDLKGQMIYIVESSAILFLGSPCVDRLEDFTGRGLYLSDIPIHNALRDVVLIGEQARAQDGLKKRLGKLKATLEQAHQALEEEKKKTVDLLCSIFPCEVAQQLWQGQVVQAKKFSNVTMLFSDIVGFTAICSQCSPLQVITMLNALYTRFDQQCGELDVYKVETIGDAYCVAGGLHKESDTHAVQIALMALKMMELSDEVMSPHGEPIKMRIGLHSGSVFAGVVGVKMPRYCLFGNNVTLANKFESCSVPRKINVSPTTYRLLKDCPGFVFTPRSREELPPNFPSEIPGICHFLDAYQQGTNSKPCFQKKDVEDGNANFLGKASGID
T1 sequence (Q02153 1-619): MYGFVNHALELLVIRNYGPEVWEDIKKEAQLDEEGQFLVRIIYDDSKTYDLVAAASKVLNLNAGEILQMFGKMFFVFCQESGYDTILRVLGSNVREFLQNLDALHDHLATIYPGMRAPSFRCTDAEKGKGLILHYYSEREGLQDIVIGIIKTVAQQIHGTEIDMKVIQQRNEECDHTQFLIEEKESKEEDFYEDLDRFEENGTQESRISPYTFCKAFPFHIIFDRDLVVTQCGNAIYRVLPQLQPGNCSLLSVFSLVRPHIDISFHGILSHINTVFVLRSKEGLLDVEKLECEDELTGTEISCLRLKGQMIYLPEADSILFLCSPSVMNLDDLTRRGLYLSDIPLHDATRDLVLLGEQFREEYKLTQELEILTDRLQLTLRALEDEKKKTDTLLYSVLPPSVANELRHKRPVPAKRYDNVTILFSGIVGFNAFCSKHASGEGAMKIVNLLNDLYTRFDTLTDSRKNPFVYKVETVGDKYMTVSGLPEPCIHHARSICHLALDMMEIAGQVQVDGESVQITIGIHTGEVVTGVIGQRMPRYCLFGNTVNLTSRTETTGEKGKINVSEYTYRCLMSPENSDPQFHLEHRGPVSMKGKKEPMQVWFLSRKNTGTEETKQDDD
Experimental: Full-length human recombinant guanylyl cyclase (soluble) and bovine lung guanylyl cyclase (soluble) were obtained from Enzo lifesciences (catalogue numbers ALX-201-177 and ALX-202-039-C005). Biacore consumables were purchased from GE Healthcare (UK), including buffer stock solutions. All other reagents used were obtained from Sigma. Starting materials were either commercially available or synthesized according to methods reported in the literature. ^1H and ^13C NMR spectra were recorded on a Bruker AMX-300 or a Bruker AMX-500 spectrometer. Chemical shifts are reported as ppm relative to TMS internal standard. Mass spectra were recorded on a Fisons VG70-SE spectrometer (EI, FAB) or an Agilent 6100 Series LC-mass spectrometer using C-18 or C-4 columns. Microwave reactions were carried out using a CEM Discover microwave.
Surface plasmon resonance (SPR) experiments were performed with a Biacore T200 instrument at 25 °C. Data processing and analysis were performed using BIAevaluation software and Scrubber2. All sensorgrams were double referenced by subtracting the response in a reference flowcell and a blank sample. Materials and methods used were the same as previously published.[24]

[2] = biological target: T2, membrane-bound GCs (pGC) (Rattus norvegicus, UniProt P18910); assay: Particulate guanylate cyclase assay in purified rat lung membranes; assay type: biochemical
T2 sequence (P18910 29-1057): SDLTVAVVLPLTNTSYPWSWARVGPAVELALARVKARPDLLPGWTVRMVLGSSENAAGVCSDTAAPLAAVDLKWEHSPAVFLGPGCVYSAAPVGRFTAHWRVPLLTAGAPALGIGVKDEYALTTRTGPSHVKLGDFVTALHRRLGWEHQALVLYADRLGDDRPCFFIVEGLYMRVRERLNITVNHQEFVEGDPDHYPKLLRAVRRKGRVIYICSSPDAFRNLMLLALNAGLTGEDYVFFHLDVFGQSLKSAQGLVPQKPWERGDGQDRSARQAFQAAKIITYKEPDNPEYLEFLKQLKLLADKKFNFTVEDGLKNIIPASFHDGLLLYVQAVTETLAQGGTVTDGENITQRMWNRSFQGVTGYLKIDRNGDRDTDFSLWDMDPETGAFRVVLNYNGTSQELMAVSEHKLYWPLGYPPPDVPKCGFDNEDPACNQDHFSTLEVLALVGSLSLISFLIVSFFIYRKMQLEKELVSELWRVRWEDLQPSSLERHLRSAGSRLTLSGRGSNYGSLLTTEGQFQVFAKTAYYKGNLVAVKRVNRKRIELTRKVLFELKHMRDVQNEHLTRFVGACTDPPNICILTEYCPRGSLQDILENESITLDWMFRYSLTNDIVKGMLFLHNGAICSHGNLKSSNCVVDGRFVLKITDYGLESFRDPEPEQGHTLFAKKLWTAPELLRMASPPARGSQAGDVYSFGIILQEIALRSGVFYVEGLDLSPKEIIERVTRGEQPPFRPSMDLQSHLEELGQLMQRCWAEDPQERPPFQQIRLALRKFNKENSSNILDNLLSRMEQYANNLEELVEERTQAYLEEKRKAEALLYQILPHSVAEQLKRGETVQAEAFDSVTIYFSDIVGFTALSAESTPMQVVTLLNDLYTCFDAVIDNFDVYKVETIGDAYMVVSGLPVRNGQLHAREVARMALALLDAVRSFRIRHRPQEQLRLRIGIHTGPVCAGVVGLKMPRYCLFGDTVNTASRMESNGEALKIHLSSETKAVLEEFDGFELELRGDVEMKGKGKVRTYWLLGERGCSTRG
Experimental: Purified rat lung membranes (20 μg protein/200 μL) were incubated in Tris buffer with 10 mM phosphocreatine, 10 units/mL creatine phosphokinase, and 10 μM ODQ to inhibit NO-activated GC. The reaction took place with 0.3 mM MgCl, 0.5 mM MgATP, and 1 mM MgGTP, at 37 °C. The compound was added and 1 μM ANP used to activate pGC. cGMP formation was allowed to proceed for 10.5–12.5 min and was subsequently measured by radioimmunoassay.

SMILES: O=[N+]([O-])c1ccc2nc(Nc3ccc(O)cc3)c(Nc3ccc(O)cc3)nc2c1 [Compound 10, 4,4′-((6-Nitroquinoxaline-2,3-diyl)bis(azanediyl))diphenol]
- Kd [1]: 19.4 ± 2.1 µM
- Hill slope ([2]; Basal (listed under ANP group)): 2
- IC50 ([2]; Basal (listed under ANP group)): 15 ± 2 µM
- Hill slope ([2]; GC activator ANP 10 nM): 2
- IC50 ([2]; GC activator ANP 10 nM, rat lung membranes, 10 μM ODQ): 21 ± 3 µM
- Hill slope ([2]; GC activator ANP 1 μM): 1
- IC50 ([2]; GC activator ANP 1 μM, rat lung membranes, 10 μM ODQ): 25 ± 13 µM
- inhibition of pGC-generated cGMP (in words) ([2]; rat lung membranes, atrial natriuretic peptide stimulation, 10 μM ODQ): showed inhibition; also recorded: Inhibition of particulate GC was also observed

Reference: PMC4558462, “A new small molecule inhibitor of soluble guanylate cyclase” (Bioorganic & Medicinal Chemistry, 2015)
